Source: US20100209436A1, “METHOD FOR TREATING DISEASES RELATED TO MITOCHONDRIAL DYSFUNCTION” (priority 2007, published 2010)
Entries after “also recorded” stand apart in the source; their conditions may differ.

Tests used:
Format in all cases: cell-based, human
[1] = system: OPA1 isoforms in HeLa cells; assay: Ratios of OPA1 isoforms by western blot densitometry, uncoupler experiment
Method: (§1) a, HeLa cells and human fibroblasts were treated with CCCP (20 μM) for 6 h and total cell extracts were subjected to western blotting with OPA1 antibodies. b-d, Cells were treated or not (Control) with CCCP (20 μM) for 30 min, washed, and incubated further with medium lacking CCCP for the indicated time periods or CCCP (20 μM) was left for 6 h. In parallel, these experiments were performed in the presence of cycloheximide (CHX; 175 μg/ml). Cells were stained with MitoTracker (red) and with cytochrome c antibodies (green).
Cell pellets were lysed in Lämmli-buffer 1× and heated for 5 min at 95° C. Samples equivalent to ˜10^6 cells were loaded on a 10% acrylamid gel (12 cm high×16 cm wide plates separated by 1.5 mm thick spacers). Gels were run for 3.5 hours at constant 30 mA or until the 37 kD band of the BioRad Precision Plus Protein standard reaches the bottom of the gel. The proteins were transferred to a nitrocellulose membrane by semi-dry blotting for 1.5 hours at 200 mA using Tris/glycine buffer. The membrane was incubated in TBS buffer containing 5% non fat milk powder for 30 min. The membrane was then incubated in TBS buffer containing 5% non fat milk powder and affinity purified rabbit OPA1 antibodies (raised against the C-terminal peptide of OPA1: […] (SEQ ID No: 30)) diluted 1:500 for 1 hour. After three rapid washes to remove the primary antibody in excess, the membrane was further incubated for 1 hour in TBS containing 5% non fat milk powder and secondary antibodies anti rabbit conjugated to HRP (horseradish peroxidase) diluted 1:10,000 (BioRad). The membrane was then washed in TBS, once rapidly, and four more times for 5 min each. ECL reagent (enhanced chemoluminescence reagent) was used to reveal the different OPA1 isoform bands on the membrane. Expositions of 1 to 2 min were usually sufficient to detect all OPA1 forms. The compositions of the buffers and gels to be employed are as follows.
From the results of the below described uncoupler experiments using HeLa cells (Example 9; FIG. 9a), the ratio of the relative amount of various OPA1 isoforms was determined. For this purpose, total protein extracts were separated by SDS-PAGE and immunoblotted using an antibody raised against the C-terminus of OPA1. The western blot was scanned and densitometrically analysed using standard imaging software. The intensity of each band was determined and the background intensity was subtracted.

[2] = system: OPA1 isoforms in HeLa cells or fibroblasts; assay: Uncoupler experiments: OPA1 isoform pattern by western blot; conditions: CCCP 20 μM 6 h
Method: as §1
d, OPA1 isoforms by western blot analysis. Extracts of untreated cells (C) and of cells treated for 6 h with CHX alone (+CHX 6 h) were used as controls.
It was further observed whether dissipation of the membrane potential is sufficient to trigger changes in abundance of OPA1 isoforms and fragmentation of mitochondria. […] Proteolytic processing occurs within mitochondria as shown by cellular fractionation experiments (FIG. 10c). This is specific for OPA1 since degradation of other mitochondrial proteins is not observed (FIG. 10c). Fragmentation of mitochondria occurred rapidly within 15 to 30 min after addition of CCCP (FIG. 9bc). Processing of OPA1 took place within the same narrow time frame (FIG. 9d). Impairment of fusion of mitochondria may therefore be due to rapid inactivation of OPA1 by proteolysis of large isoforms. […]

HeLa cells [3] = assay: Uncoupler experiments: mitochondrial morphology and cytochrome c by confocal fluorescence microscopy
Method: b, Quantification of mitochondrial morphology in cells: Tubular, at least one mitochondrial tubule of 5 μm or more; intermediate, at least one between 0.5 and 5 μm but none more than 5 μm; fragmented, none of more than 0.5 μm in length. Error bars represent standard deviation of five slides evaluated.
as §1
(§2) Live cells were fluorescently labeled with MitoTracker® Red CMXRos (Molecular probes, USA) for mitochondria or with 4′,6-diamidino-2-phenylindole dihydrochloride (DAPI; Molecular probes, USA) for the nucleus, subsequently fixed, and permeabilised. Immunostaining was carried out with mouse anti-cytochrome c monoclonal antibody (clone 6H2.B4; BD Biosciences) and chicken anti-GFP antibody (Ayes Lab Inc., USA). The following secondary antibodies conjugated to fluorescent dyes were used: Alexa Fluor® 488 anti-mouse IgG (H+L) (Molecular probes, USA), Cy3-conjugated anti-mouse IgG and Fluorescein (FITC)-conjugated anti-chicken IgG (Jackson Immunoresearch, USA). Cells were mounted with Prolong® Gold antifade reagent (Molecular probes, USA). All treatments were done according to the manufacturers' instructions. Mitochondrial morphology was analysed by confocal microscopy using a Zeiss LSM 510 (Carl Zeiss Microscopy, Jena, Germany) equipped with a 63× objective. For all imaging, 512×512 pixel images of single confocal planes were acquired and processed with the Bitplane Imaris 4 software. This technique was particularly employed for FIGS. 5 to 7 and 9 and the corresponding examples.

[4] = system: OPA1 isoforms in HeLa cells; assay: Pulse-chase experiment of OPA1 isoforms; conditions: 20 μM CCCP for 1 hour during chase
Method: HeLa cells were subjected to radioactive labeling of newly synthesized proteins. After labeling cells were washed, incubated for the indicated time in the absence of radiolabeled amino acids (chase) either in the presence or the absence of CCCP (20 μM). Cells were lysed at indicated times of chase and subjected to immunoprecipitation with antibodies raised against OPA1. Elution fractions were analyzed by digital autoradiography (top panel) and the same membrane was subjected to western blot analysis using OPA1 antibodies (bottom panel). The different OPA1 isoforms are indicated by arrows and named L1-, L2-, S3-, S4- and S5-OPA1.
The large OPA1 isoforms l-OPA1#1 and l-OPA1#2 are converted to the small OPA1 isoforms s-OPA1#3, s-OPA1#4 and/or s-OPA1#5. […] Then cells were washed 3 times with PBS and 1 ml fresh DMEM medium +10% FCS without radioactive methione (chase) was added. Cells were either treated with 20 μM CCCP for 1 hour or not. OPA1 was immunoprecipitated using an antibody raised against the C-terminus of OPA1 and OPA1 was detected by autoradiography and by western-blotting after SDS-PAGE. […] Accordingly, it can be concluded that l-OPA1 isoforms are actually converted to s-OPA1 isofoms, in particular towards s-OPA1#5.

[5] = system: OPA1 processing in HeLa cells; assay: Protease inhibitors on uncoupler-induced conversion of larger OPA1 isoforms to smaller isoforms; conditions: HeLa cells preincubated 10 min with inhibitor, then CCCP 25 min
Method: a, The protease inhibitor o-phenanthroline (o-Phe) and partially DCI (3,4-Dichloroisocoumarin), but not phenylmethylsulphonylfluoride (PMSF) block uncoupler induced conversion of larger OPA1 isoforms to smaller isoforms. HeLa cells were preincubated for 10 min with or without the protease inhibitors at the indicated concentration before CCCP (20 μM) was added. Cells were further incubated for 25 min before they were harvested, lysed in loading buffer, loaded on a SDS-PAGE, and immunoblotted with OPA1 antibodies.

HeLa cells [6] = assay: Staurosporine-induced apoptosis: mitochondrial fragmentation, cytochrome c release, OPA1 isoforms; conditions: 1 μM staurosporine
Method: HeLa cells were treated with 1 μM staurosporine for the indicated time periods, stained with MitoTracker (red) and with cytochrome c antibodies (green).
b, Cells were classified. Tubular, at least one mitochondrial tubule of 5 μm or more; intermediate, at least one between 0.5 and 5 μm but none more than 5 μm; fragmented, none of more than 0.5 μm in length. A representative experiment out of three is shown.
c, Cells were classified for cytochrome c release by immunostaining. Not released, completely colocalised with MitoTracker; intermediate, partly co-localised with MitoTracker; and released, not co-localised with MitoTracker.
d, OPA1 protein isoforms were determined by western blot analysis of total cell extracts. Total cell extracts (C) and isolated mitochondria (M) from untreated HeLa cells were used as controls.
as §2

[7] = HeLa +CCCP (20 μM, 6 h), densitometry of western blot

For N#CC(C#N)=NNc1cccc(Cl)c1 [CCCP, carbonyl cyanide 3-chlorophenylhydrazone], the “OPA1#3 + #4 + #5/ all bands %” value [1, 7] was 93.0%, the “OPA1#3 + #5/ all bands %” value [1, 7] was 64.8% and the “OPA1#3/ all bands %” value [1, 7] was 19.2%. The “OPA1#4/ all bands %” value [1, 7] was 28.2%, the “OPA1#5/ all bands %” value [1, 7] was 45.6% and the “fold increase of OPA1#3 + #4 + #5/ all bands” value ([1]; HeLa +CCCP versus HeLa −CCCP) was 2.0 fold. The “fold increase of OPA1#3 + #5/ all bands” value ([1]; HeLa +CCCP versus HeLa −CCCP) was 3.2 fold, the “fold increase of OPA1#3/ all bands” value ([1]; HeLa +CCCP versus HeLa −CCCP) was 1.9 fold and the “fold increase of OPA1#4/ all bands” value ([1]; HeLa +CCCP versus HeLa −CCCP) was 1.0 fold. For the same molecule, the “fold increase of OPA1#5/ all bands” value ([1]; HeLa +CCCP versus HeLa −CCCP) was 4.4 fold, the “change of OPA1 isoform pattern” value [2] was “dramatic shift of OPA1 isoforms towards the smaller isoforms” and the “time to fragmentation of mitochondria after addition” value (HeLa cells [3]; CCCP 20 μM) was 15 to 30 min. For the same molecule, the “mitochondrial morphology upon removal of the uncoupler” value (HeLa cells [3]; CCCP 20 μM 30 min, then washed) was “normal mitochondrial morphology was recovered”, the cytochrome c release (HeLa cells [3]; CCCP treatment) was “not accompanied by cytochrome c release” and the “change of OPA1 isoforms in pulse-chase (autoradiography and western blot)” value [4] was “shift from the large isoforms to the short isoforms”.

For O=c1oc(Cl)c(Cl)c2ccccc12 [DCI, 3,4-Dichloroisocoumarin], the “block of uncoupler (CCCP 20 μM) induced proteolytic processing of OPA1” value (“block of uncoupler” below) [5] was “(at least partially) blocked”.

With O=S(=O)(F)Cc1ccccc1 [PMSF, phenylmethylsulphonylfluoride] the “block of uncoupler” value [5] was “not”.

C[C@@H]1C[C@@H]([C@H](O)CC2CC(=O)NC(=O)C2)C(=O)[C@@H](C)C1 [cycloheximide] was tested, and the “recovery of tubular mitochondrial network and reappearance of large OPA1 isoforms after CCCP removal” value (HeLa cells [3]; CHX 175 μg/ml) was “impaired” and the “effect on uncoupler-induced fragmentation and OPA1 processing” value (HeLa cells [3]; CHX 175 μg/ml with CCCP 20 μM) was “did not interfere”.

For c1cnc2c(c1)ccc1cccnc12 [o-phenanthroline], the “block of uncoupler” value [5] was “block; also recorded: (at least partially) blocked” and the “block of uncoupler” value ([5]; listed as ortho-phenanthroline) was “inhibited”.

CN[C@@H]1C[C@H]2O[C@@](C)([C@@H]1OC)n1c3ccccc3c3c4c(c5c6ccccc6n2c5c31)C(=O)NC4 [staurosporine] was tested, and the “time to fragmentation of mitochondria” value (HeLa cells [6]) was 2 to 3 h, the “cells that released cytochrome c” value (HeLa cells [6]; only after 5-6 h) was “more than 50%” and the “change of OPA1 isoforms” value (HeLa cells [6]; western blot) was “disappearance of the two largest OPA1 isoforms”.
